According to BindingDB's records for doi:10.1016/j.bmcl.2008.10.113 (Ucb Pharma, 2008):

Biological target: Bcl-xL
Assay: Inhibition of GST fused Bcl-xL binding to biotinylated 16 mer Bak-BH3 peptide by HTRF-LANCE assay

Compound | IC50 [µM]
Cc1cc(C(=O)N(c2ccccc2)c2ccccc2)nn1-c1ccccc1C(=O)N1Cc2ccccc2C[C@H]1CN(C)C [1-(2-((S)-3-((dimethylamino)methyl)-1,2,3,4-tetrahydroisoquinoline-2-carbonyl)phenyl)-5-methyl-N,N-diphenyl-1H-pyrazole-3-carboxamide] | 6.79
CC(=O)NC[C@@H]1Cc2ccccc2CN1C(=O)c1ccccc1-n1nc(C(=O)N(c2ccccc2)c2ccccc2)cc1C [1-(2-((S)-3-(acetamidomethyl)-1,2,3,4-tetrahydroisoquinoline-2-carbonyl)phenyl)-5-methyl-N,N-diphenyl-1H-pyrazole-3-carboxamide] | 9.69
Cc1cc(C(=O)N(c2ccccc2)c2ccccc2)nn1-c1ccccc1C(=O)N1Cc2ccccc2C[C@H]1CN [1-(2-((S)-3-(aminomethyl)-1,2,3,4-tetrahydroisoquinoline-2-carbonyl)phenyl)-5-methyl-N,N-diphenyl-1H-pyrazole-3-carboxamide] | 11.4
COC[C@@H]1Cc2ccccc2CN1C(=O)c1ccccc1-n1nc(C(=O)N(c2ccccc2)c2ccccc2)cc1C [1-(2-((S)-3-(methoxymethyl)-1,2,3,4-tetrahydroisoquinoline-2-carbonyl)phenyl)-5-methyl-N,N-diphenyl-1H-pyrazole-3-carboxamide] | 5.57
Cc1c(Br)c(C(=O)N(c2ccccc2)c2ccccc2)nn1-c1ccccc1C(=O)N1Cc2ccccc2C[C@H]1CO [4-bromo-1-(2-((S)-3-(hydroxymethyl)-1,2,3,4-tetrahydroisoquinoline-2-carbonyl)phenyl)-5-methyl-N,N-diphenyl-1H-pyrazole-3-carboxamide] | 2.41

The next lines start with the values.

IC50 [µM] | Compound
2.28 | Cc1c(Cl)c(C(=O)N(c2ccccc2)c2ccccc2)nn1-c1ccccc1C(=O)N1Cc2ccccc2C[C@H]1CO [4-chloro-1-(2-((S)-3-(hydroxymethyl)-1,2,3,4-tetrahydroisoquinoline-2-carbonyl)phenyl)-5-methyl-N,N-diphenyl-1H-pyrazole-3-carboxamide]
12.6 | CNC[C@@H]1Cc2ccccc2CN1C(=O)c1ccccc1-n1nc(C(=O)N(c2ccccc2)c2ccccc2)cc1C [5-methyl-1-(2-((S)-3-((methylamino)methyl)-1,2,3,4-tetrahydroisoquinoline-2-carbonyl)phenyl)-N,N-diphenyl-1H-pyrazole-3-carboxamide]
18 | CCOC(=O)[C@@H]1Cc2ccccc2CN1C(=O)c1ccccc1-n1nc(C(=O)N(c2ccccc2)c2ccccc2)cc1C [(3S)-ethyl 2-(2-(3-(diphenylcarbamoyl)-5-methyl-1H-pyrazol-1-yl)benzoyl)-1,2,3,4-tetrahydroisoquinoline-3-carboxylate]
